Our source for the MIC, MBC and Activity values is ChEMBL document CHEMBL5385959, “Trifluoroacetic acid-mediated synthesis of xanthene constructs and their extensive anti-tuberculosis evaluation” (RSC Med Chem, 2024).

Data set [1] has as its system Mycobacterium tuberculosis. As to the kind of experiment: Antibacterial activity against Mycobacterium tuberculosis H37Ra assessed as reduction in bacterial growth incubated for 14 days by CLSI protocol based method. It is filed as functional. The settings on record: 336 h, time 14 day.
Data set [2] relates to Mycobacterium tuberculosis. Put plainly: Antibacterial activity against Mycobacterium tuberculosis H37Rv assessed as reduction in bacterial growth incubated for 14 days by CLSI protocol based method. It is filed as functional. The settings on record: 336 h, time 14 day.
Data set [3] has as its system Mycobacterium tuberculosis. As to the kind of experiment: Bactericidal activity Mycobacterium tuberculosis assessed as reduction in bacterial growth incubated for 28 days by broth microdilution method. It is filed as functional. As to conditions: 672 h, time 28 day.
The subject of data set [4] is Pseudomonas aeruginosa. Put plainly: Antibacterial activity against Pseudomonas aeruginosa assessed as reduction in bacterial growth incubated for 24 hrs by broth dilution method. It is filed as functional. Background: Broth dilution looks for growth in wells or tubes with falling amounts of substance.
Data set [5] relates to Escherichia coli. As to the kind of experiment: Antibacterial activity against Escherichia coli assessed as reduction in bacterial growth incubated for 24 hrs by broth dilution method. It is filed as functional.
The subject of data set [6] is Bacillus subtilis. As to the kind of experiment: Antibacterial activity against Bacillus subtilis assessed as reduction in bacterial growth incubated for 24 hrs by broth dilution method. It is filed as functional.
Data set [7] relates to Mycobacterium tuberculosis. Put plainly: Antibacterial activity against Mycobacterium tuberculosis H37Rv assessed as reduction in bacterial growth by broth microdilution method. It is filed as functional.
Data set [8] has as its system Mycobacterium tuberculosis. Put plainly: Synergistic antibacterial activity against Mycobacterium tuberculosis H37Rv assessed as isoniazid MIC by broth microdilution method. It is filed as functional.
Data set [9] has as its system Mycobacterium tuberculosis. As to the kind of experiment: Synergistic antibacterial activity against Mycobacterium tuberculosis H37Rv assessed as ethambutol MIC by broth microdilution method. It is filed as functional.
Data set [10] relates to Mycobacterium tuberculosis. As to the kind of experiment: Synergistic antibacterial activity against Mycobacterium tuberculosis H37Rv assessed as rifampicin MIC by broth microdilution method. It is filed as functional.
Data set [11] has as its system Mycobacterium tuberculosis. Put plainly: Synergistic antibacterial activity against Mycobacterium tuberculosis H37Rv assessed as reduction in microbial growth in presence of rifampicin by broth microdilution method. It is filed as functional.
For data set [12], the system named is Mycobacterium tuberculosis. As to the kind of experiment: Synergistic antibacterial activity against Mycobacterium tuberculosis H37Rv assessed as reduction in microbial growth in presence of isoniazid by broth microdilution method. It is filed as functional.
Data set [13] has as its system Mycobacterium tuberculosis. Put plainly: Synergistic antibacterial activity against Mycobacterium tuberculosis H37Rv assessed as reduction in microbial growth in presence of ethambutol by broth microdilution method. It is filed as functional.
The test system of data set [14] is Mycobacterium tuberculosis. As to the kind of experiment: Bactericidal activity Mycobacterium tuberculosis H37Rv assessed as reduction in bacterial growth incubated for 2 days by time kill assay. It is filed as functional. The settings on record: 48 h, time 2 day.
Data set [15] relates to Mycobacterium tuberculosis. Put plainly: Bactericidal activity Mycobacterium tuberculosis H37Rv incubated for 2 days by time kill assay. It is filed as functional, organism-based. The settings on record: time 2.0 day.
In data set [16] the test system is Mycobacterium tuberculosis. Put plainly: Bactericidal activity Mycobacterium tuberculosis H37Rv incubated for 15 days by time kill assay. It is filed as functional, organism-based. The settings on record: time 15.0 day.
Data set [17] deals with Mycobacterium tuberculosis. As to the kind of experiment: Bactericidal activity Mycobacterium tuberculosis H37Rv assessed as log reduction in CFU at 2 times MIC incubated for 2 days by time kill assay. The settings on record: time 2 day. It is filed as functional.
Data set [18] deals with Mycobacterium tuberculosis. Put plainly: Bactericidal activity Mycobacterium tuberculosis H37Rv assessed as log reduction in CFU at 2 times MIC incubated for 5 to 10 days by time kill assay. It is filed as functional, organism-based. As to conditions: time 5-10 day.
Data set [19] concerns Mycobacterium tuberculosis. As to the kind of experiment: Bactericidal activity Mycobacterium tuberculosis H37Rv at 4 times MIC incubated for 7 days by time kill assay. It is filed as functional, organism-based. The settings on record: time 7.0 day.
Data set [20] relates to Mycobacterium tuberculosis. As to the kind of experiment: Synergistic antibacterial activity against Mycobacterium tuberculosis H37Rv assessed as log reduction in CFU measured for 2 days in presence of isoniazid by time kill assay. It is filed as functional. The settings on record: time 2 day.
Data set [21] concerns Mycobacterium tuberculosis. As to the kind of experiment: Synergistic antibacterial activity against Mycobacterium tuberculosis H37Rv assessed as log reduction in CFU measured for 4 days in presence of isoniazid by time kill assay. As to conditions: time 4 day. It is filed as functional.
Data set [22] concerns Mycobacterium tuberculosis. As to the kind of experiment: Antibacterial activity against GFP-tagged Mycobacterium tuberculosis H37Rv assessed as reduction in GFP expression at half times MIC incubated for 7 days by confocal microscopic analysis. It is filed as functional, organism-based. As to conditions: time 7.0 day.
Data set [23] deals with HEK293. Put plainly: Cytotoxicity against HEK293 cells assessed as reduction in cell viability at 100 uM incubated for 48 hrs by MTT assay. It is filed as toxicity, cell-based. As to conditions: human, hek293, 48 h. Background: Tetrazolium assays rely on reduction of a dye to a coloured formazan, in cell work by metabolically active cells.
Data set [24] is described as follows: Cytotoxicity against mouse RAW 264 cells assessed as reduction in cell viability at 150 uM incubated for 48 hrs by MTT assay. It is filed as functional.
Data set [25] has as its system A549. Put plainly: Cytotoxicity against human A549 cells assessed as reduction in cell viability at 200 uM incubated for 48 hrs by MTT assay. It is filed as functional.
The test system of data set [26] is Mycobacterium tuberculosis. As to the kind of experiment: Bactericidal activity Mycobacterium tuberculosis H37Rv assessed as log reduction in CFU incubated for 2 days by time kill assay. It is filed as functional. The settings on record: time 2 day.
Data set [27] relates to Mycobacterium tuberculosis. As to the kind of experiment: Bactericidal activity Mycobacterium tuberculosis H37Rv by time kill assay. It is filed as functional, organism-based. The settings on record: time 16.0 day.
Data set [28] relates to Mycobacterium tuberculosis. As to the kind of experiment: Bactericidal activity Mycobacterium tuberculosis H37Rv assessed as log reduction in CFU at 16 times MIC incubated for 8 days by time kill assay. As to conditions: time 8 day. It is filed as functional.
The subject of data set [29] is Mycobacterium tuberculosis. As to the kind of experiment: Bactericidal activity Mycobacterium tuberculosis H37Rv assessed as log reduction in CFU at 16 times MIC incubated for 2 to 6 days by time kill assay. It is filed as functional. The settings on record: time 2-6 day.

Converted amounts (≈) assume the structure as drawn. The source made the active and inactive calls. No cut-off for these calls is given here.

What is called MIC is the lowest concentration that inhibits growth of the organism. As a reminder, the MBC is the lowest tested concentration that kills the bacteria rather than only halting them. Turning to `CC1(C)CC(=O)C2=C(C1)OC1=C(C(=O)CC(C)(C)C1)C2c1ccccc1`, the MIC in [1] was 8 µg/mL (≈ 22.8 µM); in [2], 8 µg/mL (≈ 22.8 µM); in data set [4] it was > 128 µg/mL; in data set [5], > 128 µg/mL; in [6], > 128 µg/mL; in data set [7] it was 8 µg/mL (≈ 22.8 µM). For the same molecule, the MIC is 0.078 µg/mL in data set [8]; 0.312 µg/mL in data set [9]; 0.009 µg/mL in data set [10]; 0.009 µg/mL in [11]; 0.078 µg/mL in data set [12]; 0.25 µg/mL in data set [13]. Besides, in data set [14], the MIC is 8 µg/mL (≈ 22.8 µM). In addition, the MBC in [3] came out at 8 µg/mL (≈ 22.8 µM). Moreover, the result in data set [15], in data set [18], in [19] and in [22] was Active. In addition, the outcome in data set [16] was inactive. For the same molecule, the Activity is given as 3 log10CFU in data set [17]; 2 log10CFU in [20]; 1 log10CFU in data set [21]; > 75% in data set [23]; >75% in data set [24]; >75% in [25].

Turning to `COc1cccc(C2C3=C(CCCC3=O)OC3=C2C(=O)CCC3)c1`, the MIC in data set [1] was 8 µg/mL (≈ 24.7 µM); in data set [2], 8 µg/mL (≈ 24.7 µM); in [4] it was > 128 µg/mL; in data set [5], > 128 µg/mL; in [6], > 128 µg/mL; in data set [7], 8 µg/mL (≈ 24.7 µM). Besides, the MIC in data set [8] came to 0.078 µg/mL; in [9] it was 0.312 µg/mL; in [10] it was 0.009 µg/mL; in data set [11], 0.5 µg/mL; in data set [12], 0.25 µg/mL; in data set [13], 0.25 µg/mL. The MIC in data set [14] worked out at 8 µg/mL (≈ 24.7 µM). In [3], the MBC was 8 µg/mL (≈ 24.7 µM). The Activity was >2 log10CFU in data set [26]; “Dose-Dependent Effect” in data set [27]; 5 log10CFU in data set [28]; 2 log10CFU in [29]; > 75% in data set [23]; >75% in data set [24]. In addition, the Activity in data set [25] is listed as >75%. In addition, in data set [22], the outcome was Active.
